Consider six compounds from patent US9617267B2, “Compounds and methods for kinase modulation, and indications therefor” (Plexxikon Inc., priority 2009, dated 2017).

The IC50 is the concentration at which inhibition is half-maximal.

For data set [1], the target named is B-Raf (Homo sapiens (Human), UniProt P15056). In words: B-Raf kinase activity biochemical assay (AlphaScreen, biotin-MEK1 phosphorylation). Particulars: B-Raf. In a few lines: (§1)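 Biotin-MEK1 phosphorylation measured after 45 min kinase reaction at RT with 100 μM ATP final; compounds tested at 8 points from 0.1 mM DMSO stock.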
Chain of B-Raf (Homo sapiens (Human), UniProt P15056) (P15056 whole entry): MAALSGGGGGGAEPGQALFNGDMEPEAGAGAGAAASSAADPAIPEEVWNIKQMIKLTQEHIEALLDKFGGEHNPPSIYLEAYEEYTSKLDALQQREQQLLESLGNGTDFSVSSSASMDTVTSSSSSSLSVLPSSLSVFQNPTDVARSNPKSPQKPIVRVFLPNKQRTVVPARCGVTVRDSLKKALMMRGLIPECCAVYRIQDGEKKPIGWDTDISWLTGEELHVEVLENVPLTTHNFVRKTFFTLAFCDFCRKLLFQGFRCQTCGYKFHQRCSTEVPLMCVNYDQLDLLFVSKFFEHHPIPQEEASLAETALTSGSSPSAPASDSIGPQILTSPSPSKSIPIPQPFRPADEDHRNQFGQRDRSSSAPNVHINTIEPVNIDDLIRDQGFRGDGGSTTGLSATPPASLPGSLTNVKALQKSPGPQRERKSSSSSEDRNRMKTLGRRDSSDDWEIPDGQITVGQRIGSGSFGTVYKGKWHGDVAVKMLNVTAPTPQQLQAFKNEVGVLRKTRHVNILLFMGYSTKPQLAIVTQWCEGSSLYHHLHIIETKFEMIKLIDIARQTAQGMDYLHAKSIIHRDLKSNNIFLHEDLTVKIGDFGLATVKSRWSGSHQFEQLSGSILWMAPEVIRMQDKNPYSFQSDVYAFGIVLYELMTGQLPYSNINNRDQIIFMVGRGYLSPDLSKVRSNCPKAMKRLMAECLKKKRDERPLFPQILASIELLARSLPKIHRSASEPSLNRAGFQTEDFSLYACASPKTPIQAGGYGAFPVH
(In Alpha technology, singlet oxygen from a donor bead excites a nearby acceptor bead.)

For data set [2], the system named is B-Raf. The description is as above. To be noted: for Biochemical activity ratio B/V600E: ratio of IC50 B-Raf / B-Raf V600E; for Biochemical activity ratio B/C: ratio of IC50 B-Raf / c-Raf-1. In a few lines: as §1
Data set [3] has as its target B-Raf V600E (Homo sapiens (Human), UniProt P15056, V600E). In words: B-Raf V600E kinase activity biochemical assay (AlphaScreen, biotin-MEK1 phosphorylation). To be noted: for IC50: B-Raf V600E; for Biochemical activity ratio V600E/C: ratio of IC50 B-Raf V600E / c-Raf-1. The gist of the method:
as §1

Data set [4] concerns the target c-Raf-1 (Homo sapiens, UniProt P04049). In words: c-Raf-1 kinase activity biochemical assay (AlphaScreen, biotin-MEK1 phosphorylation). In a few lines:
as §1

The nature of data set [5]: Relative solubility by turbidity threshold concentration in aqueous buffers (pH 1.5, 4.5, 6.8, 7.4). It counts as physicochemical. To be noted: for turbidity threshold (L, M, H) 1.4: pH 1.4 [sic] (method: SGF pH 1.5); for turbidity threshold (L, M, H) 4.5: pH 4.5 (SIF); for turbidity threshold (L, M, H) 6.8: pH 6.8 (SIF); for turbidity threshold (L, M, H) 7.4: pH 7.4 (HEPES). The gist of the method:
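Solubility class (high >250 μM, moderate 31.3–250 μM, low <31.3 μM) comes from the concentration where absorbance reaches a 0.01 threshold, averaged across 490/535/650 nm. Samples were compound dilutions from DMSO stock, 1 μL into 99 μL buffer at pH 1.5, 4.5, 6.8 or 7.4.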

The target of data set [6] is CYP1A2 (Homo sapiens (Human), UniProt P05177). In words: CYP enzyme inhibition, fluorescent substrate (CEC). In a few lines:
(§2)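 Ten-point 1:1 compound dilutions in NADPH-regenerating cofactor mix, pre-incubated 10 min at 37 °C before enzyme/substrate addition: CYP1A2 0.5 pmol with 5 μM CEC, 15 min, 409 ex/460 em; CYP2D6 1.5 pmol with 1.5 μM AMMC, 30 min, 409 ex/530 em. IC50 from fluorescent product vs concentration.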

In data set [7] the target is CYP2C19 (Homo sapiens (Human), UniProt P33261). In words: CYP enzyme inhibition, fluorescent substrate (CEC). The gist of the method: (§3)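 Human CYP activity was followed by the fluorescence of the metabolized product of a known substrate, which falls as metabolism is inhibited. Compounds from 100 mM DMSO stocks were serially diluted 1:1 over 10 points in co-factor mix and preincubated 10 min at 37 °C. IC50 was fitted from signal versus concentration.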
Chain of CYP2C19 (P33261 whole entry): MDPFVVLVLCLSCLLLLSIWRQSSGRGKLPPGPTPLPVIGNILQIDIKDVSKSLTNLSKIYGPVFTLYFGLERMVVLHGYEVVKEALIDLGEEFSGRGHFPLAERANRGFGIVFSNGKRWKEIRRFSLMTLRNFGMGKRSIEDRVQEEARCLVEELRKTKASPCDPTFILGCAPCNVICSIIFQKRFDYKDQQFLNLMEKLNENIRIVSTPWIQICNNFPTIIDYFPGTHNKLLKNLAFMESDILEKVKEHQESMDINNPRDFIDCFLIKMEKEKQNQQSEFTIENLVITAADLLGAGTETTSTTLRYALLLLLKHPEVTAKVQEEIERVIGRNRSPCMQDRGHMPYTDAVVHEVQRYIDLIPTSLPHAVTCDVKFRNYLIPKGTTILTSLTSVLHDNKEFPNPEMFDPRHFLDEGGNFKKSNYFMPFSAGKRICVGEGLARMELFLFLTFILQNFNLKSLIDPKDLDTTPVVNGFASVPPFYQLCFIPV

The target of data set [8] is CYP2C9 (Homo sapiens (Human), UniProt P11712). In words: CYP enzyme inhibition, fluorescent substrate (MFC). In a few lines: as §3
Chain of CYP2C9 (P11712 whole entry): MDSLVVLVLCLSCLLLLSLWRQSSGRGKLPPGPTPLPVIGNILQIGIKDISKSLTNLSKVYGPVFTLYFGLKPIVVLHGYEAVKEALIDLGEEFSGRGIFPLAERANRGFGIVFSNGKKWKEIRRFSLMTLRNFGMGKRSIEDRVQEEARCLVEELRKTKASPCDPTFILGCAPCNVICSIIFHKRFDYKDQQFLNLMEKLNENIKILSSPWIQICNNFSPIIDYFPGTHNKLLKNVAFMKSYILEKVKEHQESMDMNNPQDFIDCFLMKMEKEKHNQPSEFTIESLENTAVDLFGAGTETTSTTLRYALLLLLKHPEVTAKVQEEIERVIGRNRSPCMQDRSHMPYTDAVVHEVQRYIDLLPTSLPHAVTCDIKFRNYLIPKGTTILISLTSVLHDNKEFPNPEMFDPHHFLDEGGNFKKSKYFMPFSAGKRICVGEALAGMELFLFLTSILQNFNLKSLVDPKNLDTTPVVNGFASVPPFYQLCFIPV
Data set [9] addresses CYP2D6 (Homo sapiens (Human), UniProt P10635). In words: CYP enzyme inhibition, fluorescent substrate (AMMC). Format: in vitro ADME. Particulars: read-out: Cyp IC50 2D6. The gist of the method: as §2
Data set [10] deals with CYP3A4(BFC) (Homo sapiens (Human), UniProt P08684). In words: CYP enzyme inhibition, fluorescent substrate BFC. The gist of the method:
as §3

The target of data set [11] is CYP3A4(BQ) (Homo sapiens (Human), UniProt P08684). In words: CYP enzyme inhibition, fluorescent substrate BQ. To be noted: read-out: Cyp IC50 3A4(BQ); CYP3A4, substrate BQ. In a few lines:
as §3

Setting [12] is: read-out: Cyp IC50 2C19, CYP2C19, substrate CEC.
Where [13] appears, read: read-out: Cyp IC50 2C9, CYP2C9, substrate MFC.
[14] abbreviates: read-out: Cyp IC50 3A4(BFC), CYP3A4, substrate BFC.

Read-outs that look alike come from different tables or passages of the source.

Chain of B-Raf V600E (P15056 whole entry V600E): as the sequence (P15056 whole entry) above, with V600E counted along it
Chain of CYP1A2 (P05177 whole entry): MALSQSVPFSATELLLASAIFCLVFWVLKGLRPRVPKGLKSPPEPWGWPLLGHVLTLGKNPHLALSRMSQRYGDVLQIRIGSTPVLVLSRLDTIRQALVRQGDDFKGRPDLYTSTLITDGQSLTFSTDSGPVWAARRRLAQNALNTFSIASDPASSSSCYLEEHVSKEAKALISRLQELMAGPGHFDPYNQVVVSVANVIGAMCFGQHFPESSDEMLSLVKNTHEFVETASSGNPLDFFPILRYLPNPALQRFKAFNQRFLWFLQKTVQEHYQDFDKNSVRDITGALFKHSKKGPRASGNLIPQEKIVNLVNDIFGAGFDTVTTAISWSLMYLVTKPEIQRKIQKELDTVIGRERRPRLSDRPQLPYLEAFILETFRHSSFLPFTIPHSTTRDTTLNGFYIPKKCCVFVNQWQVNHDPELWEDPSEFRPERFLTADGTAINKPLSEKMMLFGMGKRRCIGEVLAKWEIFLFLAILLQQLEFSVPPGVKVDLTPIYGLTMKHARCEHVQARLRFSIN
Chain of CYP2D6 (P10635 whole entry): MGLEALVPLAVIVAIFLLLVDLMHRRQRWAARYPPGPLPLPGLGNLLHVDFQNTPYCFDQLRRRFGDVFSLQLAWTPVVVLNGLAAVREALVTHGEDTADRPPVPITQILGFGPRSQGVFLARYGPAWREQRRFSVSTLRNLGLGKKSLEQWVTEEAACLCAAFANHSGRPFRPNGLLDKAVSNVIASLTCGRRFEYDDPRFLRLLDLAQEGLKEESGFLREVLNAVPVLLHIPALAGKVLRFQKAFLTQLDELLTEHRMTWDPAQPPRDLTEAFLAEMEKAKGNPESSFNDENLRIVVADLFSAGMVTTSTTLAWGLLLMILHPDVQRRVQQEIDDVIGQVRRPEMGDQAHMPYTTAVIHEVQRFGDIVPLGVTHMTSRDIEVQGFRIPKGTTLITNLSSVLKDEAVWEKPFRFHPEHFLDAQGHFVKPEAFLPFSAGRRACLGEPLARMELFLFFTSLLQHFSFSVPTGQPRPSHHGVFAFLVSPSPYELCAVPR
Chain of CYP3A4(BQ) (P08684 whole entry): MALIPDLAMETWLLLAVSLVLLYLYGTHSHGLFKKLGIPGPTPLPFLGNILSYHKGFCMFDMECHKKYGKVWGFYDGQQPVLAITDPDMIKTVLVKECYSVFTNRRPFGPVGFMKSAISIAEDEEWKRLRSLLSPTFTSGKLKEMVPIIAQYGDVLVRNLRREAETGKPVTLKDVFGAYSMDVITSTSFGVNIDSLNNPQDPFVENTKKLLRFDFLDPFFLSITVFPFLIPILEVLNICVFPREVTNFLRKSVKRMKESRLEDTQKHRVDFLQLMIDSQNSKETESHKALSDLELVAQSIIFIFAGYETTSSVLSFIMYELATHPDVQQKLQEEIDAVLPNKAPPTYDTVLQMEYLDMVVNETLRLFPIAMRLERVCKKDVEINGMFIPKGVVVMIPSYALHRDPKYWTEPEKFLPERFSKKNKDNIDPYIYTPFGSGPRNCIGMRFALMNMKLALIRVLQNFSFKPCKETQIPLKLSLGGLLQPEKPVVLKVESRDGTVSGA
Chain of CYP3A4(BFC) (P08684 whole entry): as above
Chain of c-Raf-1 (P04049 whole entry, looked up): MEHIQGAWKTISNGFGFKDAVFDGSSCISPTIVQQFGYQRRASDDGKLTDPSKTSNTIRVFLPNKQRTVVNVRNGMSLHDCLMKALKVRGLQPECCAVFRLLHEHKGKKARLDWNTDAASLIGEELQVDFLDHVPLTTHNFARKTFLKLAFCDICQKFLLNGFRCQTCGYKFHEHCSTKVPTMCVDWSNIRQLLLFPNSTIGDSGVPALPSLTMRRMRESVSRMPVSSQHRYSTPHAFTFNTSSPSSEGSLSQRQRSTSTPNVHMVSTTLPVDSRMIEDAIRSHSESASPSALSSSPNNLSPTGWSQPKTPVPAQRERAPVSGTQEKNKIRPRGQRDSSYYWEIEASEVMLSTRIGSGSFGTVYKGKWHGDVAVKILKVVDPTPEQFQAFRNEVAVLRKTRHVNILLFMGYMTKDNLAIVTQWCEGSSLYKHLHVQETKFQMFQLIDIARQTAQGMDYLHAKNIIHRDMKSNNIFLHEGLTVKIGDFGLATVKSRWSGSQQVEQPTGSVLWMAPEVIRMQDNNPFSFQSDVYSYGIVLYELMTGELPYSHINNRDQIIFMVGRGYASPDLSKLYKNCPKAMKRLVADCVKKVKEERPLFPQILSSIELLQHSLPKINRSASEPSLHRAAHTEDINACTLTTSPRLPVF

With `O=C(c1c(F)ccc(NS(=O)(=O)c2ccc(C(F)(F)F)cc2)c1F)c1c[nH]c2ncnc(NCC3CC3)c12` [P-1052, N-{3-[4-(Cyclopropylmethyl-amino)-7H-pyrrolo[2,3-d]pyrimidine-5-carbonyl]-2,4-difluoro-phenyl}-4-trifluoromethyl-benzenesulfonamide], the half-maximal inhibitory concentration (IC50) in data set [1] was under 0.1 µM; in data set [3] it was under 0.1 µM; in data set [4], under 0.1 µM; in data set [6] (read-out: Cyp IC50 1A2, CYP1A2, substrate CEC), over 10 µM; in [7] (setting [12]) it was under 5 µM; in [8] (setting [13]), under 5 µM. Also, the results for the IC50 in data set [9], in [10] and in data set [11] were over 10 µM, 5 to 10 µM and over 10 µM, respectively. In data set [2], the “Biochemical activity ratio B/V600E” value is 0.1-10. In data set [2], the “Biochemical activity ratio B/C” value is given as over 10. For the same compound, in data set [3], the “Biochemical activity ratio V600E/C” value was over 10. Also, in [5], the “turbidity threshold (L, M, H) 1.4” value is given as “L (low solubility if the threshold concentration is <31.3 μM)”. The “turbidity threshold (L, M, H) 4.5” value in data set [5] is “L (low solubility if the threshold concentration is <31.3 μM)”. Further, in [5], the “turbidity threshold (L, M, H) 6.8” value is “L (low solubility if the threshold concentration is <31.3 μM)”. The “turbidity threshold (L, M, H) 7.4” value in data set [5] is “L (low solubility if the threshold concentration is <31.3 μM)”.

For `O=C(c1c(F)ccc(NS(=O)(=O)c2ccc(C(F)(F)F)cc2)c1F)c1c[nH]c2ncnc(OCC3CC3)c12` [P-1053, N-[3-(4-Cyclopropylmethoxy-7H-pyrrolo[2,3-d]pyrimidine-5-carbonyl)-2,4-difluoro-phenyl]-4-trifluoromethyl-benzenesulfonamide], the IC50 is under 0.1 µM in data set [1]; over 0.1 µM in data set [3]; under 0.1 µM in data set [4]; over 10 µM in data set [6] (human, 15 min); 5 to 10 µM in data set [7]; 5 to 10 µM in data set [8]. In addition, the IC50 in data set [9], in data set [10] (setting [14]) and in [11] was over 10 µM each time. For the same compound, the “Biochemical activity ratio B/V600E” value in data set [2] is listed as 0.1-10. In data set [2], the “Biochemical activity ratio B/C” value was 0.1-10. The “Biochemical activity ratio V600E/C” value in data set [3] is over 10. Also, the “turbidity threshold (L, M, H) 1.4” value in data set [5] is “L (low solubility if the threshold concentration is <31.3 μM)”. For the same compound, the “turbidity threshold (L, M, H) 4.5” value in [5] is “L (low solubility if the threshold concentration is <31.3 μM)”. In addition, the “turbidity threshold (L, M, H) 6.8” value in data set [5] was “L (low solubility if the threshold concentration is <31.3 μM)”. The “turbidity threshold (L, M, H) 7.4” value in data set [5] is “L (low solubility if the threshold concentration is <31.3 μM)”.

Take `O=C(c1c(F)ccc(NS(=O)(=O)c2ccc(C(F)(F)F)cc2)c1F)c1c[nH]c2ncnc(NC3CCOC3)c12` (stereo not drawn) [P-1054, N-{2,4-Difluoro-3-[4-(tetrahydro-furan-3-ylamino)-7H-pyrrolo[2,3-d]pyrimidine-5-carbonyl]-phenyl}-4-trifluoromethyl-benzenesulfonamide]: the IC50 in data set [1] was under 0.1 µM; in data set [3], under 0.1 µM; in data set [4] it was under 0.1 µM; in [6] (human, 15 min) it was over 10 µM; in [7] (setting [12]), over 10 µM; in data set [8], 5 to 10 µM. In addition, the IC50 in data set [9], in [10] (setting [14]) and in data set [11] was over 10 µM in each case. Besides, the “Biochemical activity ratio B/V600E” value in data set [2] is 0.1-10. Moreover, in [2], the “Biochemical activity ratio B/C” value was 0.1-10. The “Biochemical activity ratio V600E/C” value in data set [3] is over 10. For the same compound, in data set [5], the “turbidity threshold (L, M, H) 1.4” value is given as “M (moderate solubility if the threshold concentration is 31.3 μM to 250 μM)”. Also, the “turbidity threshold (L, M, H) 4.5” value in data set [5] is “L (low solubility if the threshold concentration is <31.3 μM)”. Besides, in [5], the “turbidity threshold (L, M, H) 6.8” value is “L (low solubility if the threshold concentration is <31.3 μM)”. In addition, in data set [5], the “turbidity threshold (L, M, H) 7.4” value is listed as “L (low solubility if the threshold concentration is <31.3 μM)”.

Consider `CCCc1ccc(S(=O)(=O)Nc2ccc(F)c(C(=O)c3c[nH]c4ncnc(NC(C)C)c34)c2F)cc1` [P-1055, N-[2,4-Difluoro-3-(4-isopropylamino-7H-pyrrolo[2,3-d]pyrimidine-5-carbonyl)-phenyl]-4-propyl-benzenesulfonamide], for which the concentration for half-maximal inhibition (IC50) is under 0.1 µM in data set [1]; over 0.1 µM in data set [3]; under 0.1 µM in data set [4]; over 10 µM in data set [6] (human, 15 min); under 5 µM in data set [7] (setting [12]); 5 to 10 µM in data set [8]. In addition, the IC50 in data set [9] was over 10 µM; in data set [10], 5 to 10 µM; in [11] it was over 10 µM. In addition, in data set [2], the “Biochemical activity ratio B/V600E” value was 0.1-10. In data set [2], the “Biochemical activity ratio B/C” value is 0.1-10. In addition, the “Biochemical activity ratio V600E/C” value in data set [3] is over 10. In addition, the “turbidity threshold (L, M, H) 1.4” value in [5] is listed as “L (low solubility if the threshold concentration is <31.3 μM)”. Moreover, in data set [5], the “turbidity threshold (L, M, H) 4.5” value is recorded as “L (low solubility if the threshold concentration is <31.3 μM)”. For the same compound, the “turbidity threshold (L, M, H) 6.8” value in [5] is reported as “L (low solubility if the threshold concentration is <31.3 μM)”. Also, in data set [5], the “turbidity threshold (L, M, H) 7.4” value is “L (low solubility if the threshold concentration is <31.3 μM)”.

For `CCCc1ccc(S(=O)(=O)Nc2ccc(F)c(C(=O)c3c[nH]c4ncnc(NC5COC5)c34)c2F)cc1` [P-1056, N-{2,4-Difluoro-3-[4-(oxetan-3-ylamino)-7H-pyrrolo[2,3-d]pyrimidine-5-carbonyl]-phenyl}-4-propyl-benzenesulfonamide], the 50% inhibitory concentration (IC50) was under 0.1 µM in data set [1]; over 0.1 µM in data set [3]; under 0.1 µM in data set [4]; over 10 µM in [6] (human, 15 min); over 10 µM in [7] (setting [12]); over 10 µM in [8] (setting [13]). The 50% inhibitory concentration (IC50) in data set [9], in data set [10] (setting [14]) and in data set [11] was over 10 µM throughout. Further, the “Biochemical activity ratio B/V600E” value in data set [2] was 0.1-10. For the same compound, the “Biochemical activity ratio B/C” value in data set [2] is given as over 10. For the same compound, the “Biochemical activity ratio V600E/C” value in data set [3] is over 10. In addition, in data set [5], the “turbidity threshold (L, M, H) 1.4” value is “M (moderate solubility if the threshold concentration is 31.3 μM to 250 μM)”. For the same compound, the “turbidity threshold (L, M, H) 4.5” value in data set [5] is listed as “L (low solubility if the threshold concentration is <31.3 μM)”. Also, in data set [5], the “turbidity threshold (L, M, H) 6.8” value was “L (low solubility if the threshold concentration is <31.3 μM)”. The “turbidity threshold (L, M, H) 7.4” value in [5] is recorded as “L (low solubility if the threshold concentration is <31.3 μM)”.

On to `CN1CCC(Nc2ncnc3[nH]cc(C(=O)c4c(F)ccc(NS(=O)(=O)c5ccc(C(F)(F)F)cc5)c4F)c23)CC1` [P-1057, N-{2,4-Difluoro-3-[4-(1-methyl-piperidin-4-ylamino)-7H-pyrrolo[2,3-d]pyrimidine-5-carbonyl]-phenyl}-4-trifluoromethyl-benzenesulfonamide], for which the IC50 in [1] is under 0.1 µM; in [3] it was over 0.1 µM; in data set [4] it was under 0.1 µM; in [6] (human, 15 min), over 10 µM; in [7] (setting [12]) it was over 10 µM; in data set [8] (setting [13]), over 10 µM. For the same compound, the IC50 in [9], in data set [10] (setting [14]) and in [11] was over 10 µM throughout. The “Biochemical activity ratio B/V600E” value in [2] was 0.1-10. Besides, the “Biochemical activity ratio B/C” value in data set [2] is recorded as 0.1-10. Besides, the “Biochemical activity ratio V600E/C” value in [3] is over 10. The “turbidity threshold (L, M, H) 1.4” value in [5] is “H (high solubility if the threshold concentration is >250 μm)”. Moreover, the “turbidity threshold (L, M, H) 4.5” value in data set [5] is listed as “H (high solubility if the threshold concentration is >250 μm)”. For the same compound, in [5], the “turbidity threshold (L, M, H) 6.8” value is on record as “M (moderate solubility if the threshold concentration is 31.3 μM to 250 μM)”. The “turbidity threshold (L, M, H) 7.4” value in [5] was “M (moderate solubility if the threshold concentration is 31.3 μM to 250 μM)”.
